In this experiment the test system is kynurenine production in HeLa cells. The experiment is described as follows: Inhibition of kynurenine production in HeLa cells. The class given is cell-based, human. As to conditions: 48 h. Here is the method:
The effect of compounds described herein on the inhibition of kynurenine production in HeLa cells (derived from human cervical cancer) was determined. HeLa cells were seeded into a 96-well culture plate at a density of 5×10^3 per well in RPMI1640/phenol red free media (from GIBCO) with 2 mM L-glutamine and 10% fetal bovine serum (FBS, from GIBCO) and grown overnight in a 37° C. incubator with 5% CO2. Twenty-four hours later, human IFN-γ (from GIBCO) (final concentration 50 ng/mL) and test compound solutions (serially diluted to different wells) were added to each well with a final volume of 200 uL per well. Forty-eight hours after incubation with compounds, 140 uL supernatant was taken from each well and was transferred to a new 96-well plate. Ten microliters of 6.1 N trichloroacetic acid were added into each well, mixed and incubated at 50° C. for 30 minutes. The reaction mixture was then centrifuged for 10 minutes at 2500 rpm and 100 uL of the supernatant per well was transferred to another 96 well plate and mixed with 100 uL of 2% (w/v) p-dimethylaminobenzaldehyde in acetic acid. The yellow color derived from kynurenine was measured at 480 nm using a SPECTRAmax i3 reader. Each compound concentration was done in triplicates and compound IC50 value was calculated using nonlinear regression using Graphpad Prism 5.0.
The inhibitory activity of representative compounds described herein, compared with another IDO inhibitor, such as INCB-24360, Controls 1 and 2 are shown in Table 2.

[1] abbreviates: Homo sapiens, HeLa, HeLa cells, human IFN-γ 50 ng/mL, kynurenine read at 480 nm, read-out: IC50.

Data on 47 compounds can be found in US11969425B2, “Inhibitor of indoleamine-2,3-dioxygenase (IDO)” (InventisBio LLC, priority 2016, dated 2024).

Like-named read-outs stand apart in the source and are kept apart here.

The IC50 is the midpoint of a concentration-inhibition curve. With `CC(C)CN(c1ccc(C2(C(=O)O)CCC2)cc1Nc1ccc(C#N)cc1)C1CCCCC1` [Compound 56], the IC50 under setting [1] was determined as 0.2 nM.

For the compound `CC(C)CN(c1ccc(C2(C(=O)O)CCC2)cc1Nc1ccc(Cl)cc1)C1CCOCC1` [Compound 57], under setting [1], the IC50 was 0.2 nM.

`CCC(C(=O)O)c1ccc(N(CC(C)C)CC(C)C)c(Nc2ccc(C#N)cc2)c1` (centres unmarked) [Compound 61A]: the IC50 under setting [1] was determined as 0.3 nM.

As for `CCC(C(=O)O)c1ccc(N(CC(C)C)C2CCCCC2)c(NC(=O)Nc2cc(C)no2)c1` (centres unmarked) [Compound 63A], under setting [1], the IC50 is 2.5 nM.

On to `CCC(C(=O)O)c1ccc(N(CC(C)C)C2CCOCC2)c(Nc2ccc(Cl)cc2)c1` (centres unmarked) [Compound 68A], for which the IC50 under setting [1] turned out to be 0.4 nM.

With `CCC(C(=O)O)c1ccc(N(CC(C)C)C2CCOCC2)c(Nc2ccc(Cl)cc2)c1` (centres unmarked) [Compound 68B], the IC50 (HeLa cells, human IFN-γ 50 ng/mL, kynurenine read at 480 nm, read-out: IC50) is 0.7 nM.

Take `CCC(C(=O)O)c1ccc(N(CC(C)C)C2CCOCC2)c(Nc2ccc(F)cc2F)c1` (centres unmarked) [Compound 69]: the IC50 under setting [1] was determined as 3.9 nM.

Turning to `CCC(C(=O)O)c1ccc(N(CC(C)C)C2CCOCC2)c(Nc2ccc(C#N)cc2)c1` (centres unmarked) [Compound 70A], the IC50 under setting [1] was 0.4 nM.

Turning to `CC(C)CN(c1ccc(C2(C(=O)O)CCC2)cc1Nc1ccc(C#N)cc1)C1CCOCC1` [Compound 72], under setting [1], the IC50 is 0.2 nM.

With `CCOc1ccc(Nc2cc(C3(C(=O)O)CCC3)ccc2N(CC(C)C)C2CCOCC2)cc1` [Compound 73], the IC50 under setting [1] was 0.4 nM.

For `CC(C)CN(c1ccc(C2(C(=O)O)CCC2)cc1Nc1cncnc1)C1CCOCC1` [Compound 74], the IC50 under setting [1] is 1.9 nM.

With `Cc1csc(Nc2cc(C3(C(=O)O)CCC3)ccc2N(CC(C)C)C2CCOCC2)n1` [Compound 76], the IC50 under setting [1] was 1.1 nM.

As to `CC(C)CN(c1ccc(C2(C(=O)O)CCC2)cc1Nc1ccc(S(C)(=O)=O)cc1)C1CCOCC1` [Compound 77], the IC50 under setting [1] amounted to 3 nM.

With `CC(C)CN(c1ccc(C2(C(=O)O)CCC2)cc1NC1CCCC1)C1CCOCC1` [Compound 78], the IC50 under setting [1] is 13.9 nM.

With `CC(C)CN(c1ccc(C2(C(=O)O)CCC2)cc1NCC1CC1)C1CCOCC1` [Compound 80], the half-maximal inhibitory concentration (IC50) under setting [1] amounted to 29 nM.

For the compound `CC(C)CN(CC(C)C)c1ncc(C2(C(=O)O)CCC2)cc1NC(=O)Nc1ccc(F)cc1F` [Compound 83], under setting [1], the IC50 worked out at 5.4 nM.

In the case of `Cc1cc(NC(=O)Nc2cc(C3(C(=O)O)CCC3)cnc2N(CC(C)C)CC(C)C)on1` [Compound 85], the IC50 under setting [1] amounted to 19 nM.

Take `CC(C)CN(c1ccc(C2(C(=O)O)CCC2)cc1Nc1cnn(C)c1)C1CCOCC1` [Compound 87]: the half-maximal inhibitory concentration (IC50) under setting [1] is 6.5 nM.

Consider `CC(C)CN(c1ccc(C2(C(=O)O)CCC2)cc1Nc1ccc(Cl)cc1F)C1CCOCC1` [Compound 88], for which, under setting [1], the IC50 turned out to be 1.7 nM.

For the compound `CC(C)CN(c1ccc(C2(C(=O)O)CCC2)cc1Nc1ccc(F)cc1F)C1CCOCC1` [Compound 89], the IC50 under setting [1] stood at 6.3 nM.

Consider `CC(C)CN(c1ncc(C2(C(=O)O)CCC2)cc1NC(=O)Nc1ccc(F)cc1F)C1CCOCC1` [Compound 90], for which the IC50 under setting [1] was 33 nM.

Take `CC(C)CN(c1ncc(C2(C(=O)O)CCC2)cc1Nc1ccc(Cl)cc1)C1CCOCC1` [Compound 92]: the IC50 under setting [1] came to 0.2 nM.

`CC(C)CN(CC(C)C)c1ncc(C2(C(=O)O)CCC2)cc1Nc1ccc(C#N)cc1` [Compound 93]: the IC50 under setting [1] turned out to be 0.3 nM.

Consider `CC(C)CN(c1ccc(C2(C(=O)O)CCC2)cc1Nc1ccc(C#N)cn1)C1CCCCC1` [Compound 94], for which, under setting [1], the IC50 stood at 0.2 nM.

In the case of `CC(C)N(CC1CC1)c1ccc(C2(C(=O)O)CCC2)cc1Nc1ccc(Cl)cc1` [Compound 95], the IC50 under setting [1] turned out to be 0.4 nM.

Consider `CC(C)CN(CC(C)C)c1ccc(C2(C(=O)O)CCC2)cc1Nc1ccc(Cl)cc1` [Compound 96], for which the IC50 under setting [1] was determined as 0.4 nM.

Take `CCOc1ncc(Nc2cc(C3(C(=O)O)CCC3)ccc2N(CC(C)C)CC(C)C)cn1` [Compound 97]: the IC50 under setting [1] is 2.4 nM.

Consider `CCOc1ncc(Nc2cc(C3(C(=O)O)CCC3)ccc2N(CC2CC2)C(C)C)cn1` [Compound 98], for which the IC50 under setting [1] is 2.8 nM.

Regarding `CC(C)CN(c1ccc(CC(=O)O)cc1Nc1ccc(C#N)cc1)C1CCCCC1` [Compound 99], the IC50 under setting [1] worked out at 3.9 nM.

Consider `CC(C)CN(c1ccc(C2(C(=O)O)CCC2)cc1Nc1cccc(Cl)c1)C1CCOCC1` [Compound 100], for which, under setting [1], the IC50 is 3.5 nM.

On to `CC(C)CN(c1ccc(C2(C(=O)O)CCC2)cc1Nc1ccc(Cl)c(F)c1)C1CCOCC1` [Compound 101], for which, under setting [1], the IC50 was found to be 0.2 nM.

Take `CC(C)CN(c1ccc(C2(C(=O)O)CCC2)cc1Nc1ccc(Cl)cn1)C1CCOCC1` [Compound 102]: under setting [1], the IC50 was 0.2 nM.

For `CC(C)CN(c1ccc(C2(C(=O)O)CCC2)cc1Nc1cc(Cl)cc(Cl)c1)C1CCOCC1` [Compound 103], the IC50 under setting [1] is 20 nM.

Consider `CC(C)CN(c1ccc(CC(=O)O)cc1Nc1ccc(Cl)cc1)C1CCOCC1` [Compound 104], for which the IC50 under setting [1] came to 1.8 nM.

For the compound `CC(C)N(CC1CC1)c1ccc(C2(C(=O)O)CCC2)cc1Nc1ccc(C#N)cn1` [Compound 108], the IC50 under setting [1] was found to be 0.3 nM.

As to `CCOc1ncc(Nc2cc(CC(=O)O)ccc2N(CC(C)C)C2CCOCC2)cn1` [Compound 109], the IC50 under setting [1] is more than 316 nM.

Turning to `CC(C)N(CC1CC1)c1ccc(C2(C(=O)O)CCC2)cc1Nc1ccc(C#N)cc1` [Compound 112], the IC50 under setting [1] is 0.2 nM.

`CC(C)N(CC1CC1)c1ccc(C2(C(=O)O)CCC2)cc1Nc1ccc(Cl)cn1` [Compound 113]: the IC50 under setting [1] worked out at 0.4 nM.

Regarding `CCOc1ncc(Nc2cc(C(C)(C)C(=O)O)ccc2N(CC2CC2)C(C)C)cn1` [Compound 114], the IC50 under setting [1] worked out at 25 nM.

For the compound `CC(C)N(CC1CC1)c1ncc(C2(C(=O)O)CCC2)cc1Nc1ccc(C#N)cc1` [Compound 116], the IC50 under setting [1] came to 0.5 nM.

As for `CCOc1ncc(Nc2cc(C(C)(C)C(=O)O)ccc2N(CC(C)C)C2CCOCC2)cn1` [Compound 121], the IC50 under setting [1] came out at 4.1 nM.

Take `CCOc1ncc(Nc2cc(C3(C(=O)O)CCC3)cnc2N(CC(C)C)C2CCOCC2)cn1` [Compound 122]: the IC50 under setting [1] was found to be 2.3 nM.

In the case of `CCOc1ncc(Nc2cc(C3(C(=O)O)CCC3)cnc2N(CC)C2CCOCC2)cn1` [Compound 124], the IC50 under setting [1] came to 11.3 nM.

Take `CCOc1ncc(Nc2cc(C3(C(=O)O)CCC3)cnc2N2CCC(c3ccccc3)CC2)cn1` [Compound 126]: under setting [1], the IC50 is 7.5 nM.

In turn, `CCOc1ncc(Nc2cc(C3(C(=O)O)CCC3)cnc2N2C3CCC2CC(c2ccc(F)cc2)C3)cn1` (centres unmarked) [Compound 127] yielded an IC50 (Homo sapiens, HeLa) of 22 nM.

With `CC(C)C1COCCN1c1ncc(C2(C(=O)O)CCC2)cc1Nc1ccc(Cl)cc1` (centres unmarked) [Compound 128], the IC50 under setting [1] came out at 9.3 nM.

For the compound `Cc1cc(NC(=O)Nc2cc([C@H]3C[C@H]3C(=O)O)ccc2N(CC(C)C)CC(C)C)on1` [Control 2, (1R,2S)-2-(4-(diisobutylamino)-3-(3-(3-methylisoxazol-5-yl)ureido)phenyl)cyclopropanecarboxylic acid, reference compound], the IC50 under setting [1] stood at 3 nM.
